Results: PubChem BioAssay (NCI)
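GI50 is the concentration that inhibits growth by half. TGI: total growth inhibition.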

How the values were obtained:
Assay in all cases: NCI anticancer screen, dose series, 384-well format
A498 renal = system: A498 renal
TK-10 renal = system: TK-10 renal
NCI-H226 lung = system: NCI-H226 lung
HS 578T breast = system: HS 578T breast
CCRF-CEM leukemia = system: CCRF-CEM leukemia
HOP-62 NSCLC = system: HOP-62 NSCLC
CAKI-1 renal = system: CAKI-1 renal
OVCAR-3 ovarian = system: OVCAR-3 ovarian
HT29 colon = system: HT29 colon
COLO 205 colon = system: COLO 205 colon
SR leukemia = system: SR leukemia
SK-MEL-28 melanoma = system: SK-MEL-28 melanoma
K-562 leukemia = system: K-562 leukemia
NCI-H460 NSCLC = system: NCI-H460 NSCLC
SNB-75 CNS = system: SNB-75 CNS
PC-3 prostate = system: PC-3 prostate
786-0 renal = system: 786-0 renal
U251 glioblastoma = system: U251 glioblastoma
OVCAR-8 ovarian = system: OVCAR-8 ovarian
UO-31 renal = system: UO-31 renal
DU-145 prostate = system: DU-145 prostate
LOX IMVI melanoma = system: LOX IMVI melanoma
NCI-H322M lung = system: NCI-H322M lung
HL-60(TB) leukemia = system: HL-60(TB) leukemia
HCT-15 colon = system: HCT-15 colon
RPMI-8226 leukemia = system: RPMI-8226 leukemia
SN12C renal = system: SN12C renal
BT-549 breast = system: BT-549 breast
SW-620 colon = system: SW-620 colon
HCC-2998 colon = system: HCC-2998 colon
MALME-3M melanoma = system: MALME-3M melanoma
MCF7 breast = system: MCF7 breast
UACC-257 melanoma = system: UACC-257 melanoma
IGROV1 ovarian = system: IGROV1 ovarian
SF-268 CNS = system: SF-268 CNS
MOLT-4 leukemia = system: MOLT-4 leukemia
MDA-MB-435 melanoma = system: MDA-MB-435 melanoma
T-47D breast = system: T-47D breast
ACHN renal = system: ACHN renal
M14 melanoma = system: M14 melanoma
SNB-19 CNS = system: SNB-19 CNS
MDA-MB-231 breast = system: MDA-MB-231 breast
SF-295 CNS = system: SF-295 CNS
RXF 393 renal = system: RXF 393 renal
NCI-H522 lung = system: NCI-H522 lung
NCI/ADR-RES ovarian = system: NCI/ADR-RES ovarian
A549 NSCLC = system: A549 NSCLC
MDA-MB-468 breast = system: MDA-MB-468 breast
SK-MEL-5 melanoma = system: SK-MEL-5 melanoma
KM12 colon = system: KM12 colon
SF-539 CNS = system: SF-539 CNS
OVCAR-4 ovarian = system: OVCAR-4 ovarian
NCI-H23 lung = system: NCI-H23 lung
OVCAR-5 ovarian = system: OVCAR-5 ovarian
HOP-92 NSCLC = system: HOP-92 NSCLC
SK-OV-3 ovarian = system: SK-OV-3 ovarian
EKVX NSCLC = system: EKVX NSCLC
UACC-62 melanoma = system: UACC-62 melanoma

CNS(=O)(=O)Nc1nccc(Cc2c(C)c3ccc(Oc4ncccn4)cc3oc2=O)c1F
GI50 (A498 renal): 13.3 µM
TGI (A498 renal): > 100 µM
GI50 (TK-10 renal): 7.49 µM
TGI (TK-10 renal): > 100 µM
GI50 (NCI-H226 lung): 0.848 µM
TGI (NCI-H226 lung): > 100 µM
GI50 (HS 578T breast): 7.8 µM
TGI (HS 578T breast): > 100 µM
GI50 (CCRF-CEM leukemia): 5.06 µM
TGI (CCRF-CEM leukemia): 49.1 µM
GI50 (HOP-62 NSCLC): 0.289 µM
TGI (HOP-62 NSCLC): > 100 µM
GI50 (CAKI-1 renal): 0.319 µM
TGI (CAKI-1 renal): > 100 µM
GI50 (OVCAR-3 ovarian): > 100 µM
TGI (OVCAR-3 ovarian): > 100 µM
GI50 (HT29 colon): 0.0418 µM
TGI (HT29 colon): > 100 µM
GI50 (COLO 205 colon): 0.0151 µM
TGI (COLO 205 colon): 0.586 µM
GI50 (SR leukemia): 2.92 µM
TGI (SR leukemia): 40.9 µM
GI50 (SK-MEL-28 melanoma): 0.0137 µM
TGI (SK-MEL-28 melanoma): 0.0616 µM
GI50 (K-562 leukemia): 0.433 µM
TGI (K-562 leukemia): > 100 µM
GI50 (NCI-H460 NSCLC): 10.2 µM
TGI (NCI-H460 NSCLC): > 100 µM
GI50 (SNB-75 CNS): > 100 µM
TGI (SNB-75 CNS): > 100 µM
GI50 (PC-3 prostate): > 100 µM
TGI (PC-3 prostate): > 100 µM
GI50 ([…]-0 renal): 98.4 µM
TGI (786-0 renal): > 100 µM
GI50 (U251 glioblastoma): 5.57 µM
TGI (U251 glioblastoma): > 100 µM
GI50 (OVCAR-8 ovarian): 39.2 µM
TGI (OVCAR-8 ovarian): > 100 µM
GI50 (UO-31 renal): 14 µM
TGI (UO-31 renal): > 100 µM
GI50 (DU-145 prostate): 26.4 µM
TGI (DU-145 prostate): > 100 µM
GI50 (LOX IMVI melanoma): 0.164 µM
TGI (LOX IMVI melanoma): 5.49 µM
GI50 (NCI-H322M lung): 0.549 µM
TGI (NCI-H322M lung): > 100 µM
GI50 (HL-60(TB) leukemia): < 0.01 µM
TGI (HL-60(TB) leukemia): > 100 µM
GI50 (HCT-15 colon): 4.39 µM
TGI (HCT-15 colon): > 100 µM
GI50 (RPMI-8226 leukemia): 0.0415 µM
TGI (RPMI-8226 leukemia): 20.5 µM
GI50 (SN12C renal): 0.0724 µM
TGI (SN12C renal): > 100 µM
GI50 (BT-549 breast): 39.6 µM
TGI (BT-549 breast): > 100 µM
GI50 (SW-620 colon): 0.0167 µM
TGI (SW-620 colon): > 100 µM
GI50 (HCC-2998 colon): 0.0142 µM
TGI (HCC-2998 colon): 0.398 µM
GI50 (MALME-3M melanoma): < 0.01 µM
TGI (MALME-3M melanoma): 0.0124 µM
GI50 (MCF7 breast): > 100 µM
TGI (MCF7 breast): > 100 µM
GI50 (UACC-257 melanoma): 0.012 µM
TGI (UACC-257 melanoma): 0.0529 µM
GI50 (IGROV1 ovarian): 0.29 µM
TGI (IGROV1 ovarian): > 100 µM
GI50 (SF-268 CNS): > 100 µM
TGI (SF-268 CNS): > 100 µM
GI50 (MOLT-4 leukemia): 13 µM
TGI (MOLT-4 leukemia): 82.7 µM
GI50 (MDA-MB-435 melanoma): 0.0305 µM
TGI (MDA-MB-435 melanoma): > 100 µM
GI50 (T-47D breast): 3.67 µM
TGI (T-47D breast): 83.3 µM
GI50 (ACHN renal): 4.16 µM
TGI (ACHN renal): > 100 µM
GI50 (M14 melanoma): < 0.01 µM
TGI (M14 melanoma): 0.102 µM
GI50 (SNB-19 CNS): 20.9 µM
TGI (SNB-19 CNS): > 100 µM
GI50 (MDA-MB-231 breast): 0.0731 µM
TGI (MDA-MB-231 breast): 43.8 µM
GI50 (SF-295 CNS): 68.6 µM
TGI (SF-295 CNS): > 100 µM
GI50 (RXF 393 renal): 4.82 µM
TGI (RXF 393 renal): > 100 µM
GI50 (NCI-H522 lung): 12.5 µM
TGI (NCI-H522 lung): > 100 µM
GI50 (NCI/ADR-RES ovarian): 15.2 µM
TGI (NCI/ADR-RES ovarian): > 100 µM
GI50 (A549 NSCLC): 0.42 µM
TGI (A549 NSCLC): > 100 µM
GI50 (MDA-MB-468 breast): 1.75 µM
TGI (MDA-MB-468 breast): 5.95 µM
GI50 (SK-MEL-5 melanoma): 0.048 µM
TGI (SK-MEL-5 melanoma): 9.68 µM
GI50 (KM12 colon): 0.181 µM
TGI (KM12 colon): > 100 µM
GI50 (SF-539 CNS): 12.9 µM
TGI (SF-539 CNS): > 100 µM
GI50 (OVCAR-4 ovarian): 0.413 µM
TGI (OVCAR-4 ovarian): > 100 µM
GI50 (NCI-H23 lung): 0.0459 µM
TGI (NCI-H23 lung): 2.54 µM
GI50 (OVCAR-5 ovarian): 0.041 µM
TGI (OVCAR-5 ovarian): > 100 µM
GI50 (HOP-92 NSCLC): 0.236 µM
TGI (HOP-92 NSCLC): 3.93 µM
GI50 (SK-OV-3 ovarian): 21.4 µM
TGI (SK-OV-3 ovarian): > 100 µM
GI50 (EKVX NSCLC): 6.39 µM
TGI (EKVX NSCLC): > 100 µM
GI50 (UACC-62 melanoma): 0.012 µM
TGI (UACC-62 melanoma): 0.138 µM
